The values below come from patent US6924288B2, “Enantiomerically pure opioid diarylmethylpiperzine and methods of using same” (priority 2001, dated 2005).

For data set [1], the target named is T1, μ opioid receptor (Rattus norvegicus, UniProt P33535).
T1 construct: tissue Pel-Freeze Biological Inc. (Rogers, Ark.); host or cells: rat whole brain membranes
Kind of data set: Radioligand binding, [3H]DAMGO competition, rat brain membranes. The method, then:
Two stereoisomerically related racemic mixtures and inclusive enantiomers were evaluated for in vitro opioid receptor affinity in rat brain membranes (μ and δ opioid) and guinea pig cerebellum (κ opioid receptor). Membranes for radioligand binding were prepared from either rat whole brain or guinea pig cerebellum, supplied by Pel-Freeze Biological Inc. (Rogers, Ark.). Tissues were homogenized in 50 mM TRIS (Tris[hydrooxymethyl]aminomethane) buffer (pH 7.4) containing 50 ug/ml soybean trypsin inhibitor, 1 mM EDTA (Ethylenediaminetetraacetic acid), and 100 μM PMSF (Phenylmethylsulfonyl fluoride). The homogenized brain tissues were centrifuged at 500×g for 30 minutes (4° C.) to remove large debris. The supernatant was polytronically sonicated for 10 seconds (P.E. setting of 2, 4° C.). Sucrose solution was then added to a final concentration of 0.35 M using a 10 mM TRIS-Sucrose buffer (pH 7.4) and the brain membranes were then centrifuged at 40,000×g for 30 minutes (4° C.). The membrane pellets were then washed twice in 10 mM TRIS buffer (pH 7.4) containing 50 μg/ml soybean trypsin inhibitor, 1 mM EDTA, and 100 μM PMSF.
Radioligand binding assays were performed in 10 mM TRIS buffer (pH 7.4) containing 50 μg/ml soybean trypsin inhibitor, 1 mM EDTA, 5 mM MgCl2, and 100 μM PMSF. Tritium-labeled DAMGO (μ), Deltorphin II (δ), or U69593 (κ) purchased from New England Nuclear were used as ligands in competitive experiments (2-3×10^−10 M final concentrations) with non-specific binding defined by 0.5×10^−6 M Naloxone (purchased from SIGMA Chemical Co.). All binding assays were run at room temperature for 90 minutes and then terminated by rapid filtration on GF/C glass fiber filters (Whatman, Hillsboro, Oreg.) with 50 mM TRIS buffer (4° C., pH 7.4) employing a Brandel Semi-automatic Cell Harvester (Model M48, Brandel, Gaithersburg, Md.). The filters were washed twice with 50 mM TRIS buffer (4° C., pH 7.4) and the filters were placed in liquid scintillation cocktail and the bound radioactivity counted on a Beckman LS 6500 scintillation counter. The potency of the compounds in inhibiting the binding of radiolabelled DAMGO (μ), Deltorphin II (δ), or U69593 (κ) was determined from full concentration-effect curves. With the computer program Prism (GraphPad Software Inc., San Diego, Calif.) the IC50 values were determined using a one-site nonlinear regression analysis of the radioligand binding data. The IC50 values were then converted to Ki values using the Cheng-Prusoff equation. (Cheng Y and Prusoff W H (1973) Relationship between the inhibition constant (K1) and the concentration of inhibitor which causes 50 percent inhibition (I50) of a enzymatic reaction. Biochem Pharm 22:3099-3108.)

In data set [2] the target is T2, Delta receptor, mouse vas deferens (Mus musculus, UniProt P32300).
T2 construct: Mouse vasa deferentia (MVD), CD-1 strain, Harlan, Raleigh, N.C.) were removed from mice; tissue Harlan, Raleigh, N.C; (animals); host or cells: mouse vas deferens, CD-1 strain
Kind of data set: Mouse vas deferens, inhibition of electrically induced contractions, delta. The data set is classed as cell-based. The conditions noted are these: read-out: Mouse Vas Deferens ED50 (nM) δ. The protocol:
The compound of formula (I) and compounds 1, 3, 4, 5 and 6 as identified above, were evaluated for in vitro opioid receptor activity in various receptor systems, including mouse vas deferens (Mouse Vas Deferens ED50), and guinea pig ileum (Guinea Pig Ileum ED50). The assay procedures used for such determinations of receptor activity are set out below.
In vitro bioassays: Mouse vasa deferentia (MVD), CD-1 strain, Harlan, Raleigh, N.C.) were removed from mice and suspended between platinum electrodes with 0.5 g of tension in organ bath chambers containing a modified Mg^++ free Krebs buffer of the following composition (millimolar): NaCl, 117.5; KCl, 4.75; CaCl2, 2.6; KH2PO4, 1.20; NaHCO3, 24.5; and glucose, 11. The buffer was saturated with 95% O2/5% CO2 and kept at 37° C. Tissues were stimulated at supramaximal voltage with 10-Hz pulse trains for 400-msec.; train interval 10 seconds; and 1.0 msec pulse duration at maximal voltage. Delta receptor activity was determined by adding appropriate concentrations of test compound to organ baths and allowing a maximal response before addition of the next higher concentration.
The ED50 values were extrapolated from curves showing the dose concentration plotted against the response (J. A. H. Lord, A. A. Waterfield, J. Hughes, H. W. Kosterlitz, Nature 267, 495, (1977)).

Data set [3] is described as follows: Respiratory depression by blood gas (pCO2) monitoring in rats. It counts as in vivo. As to conditions: male, Wistar Hannover, in vivo; rat, intravenous. The method, then:
(§1) Analgesia was assayed in rats using the tail pinch test with simultaneous monitoring of capillary blood gases (pCO2). During this testing period respiratory depression values were also obtained. Male rats (Wistar Hannover 200-300 g) were anesthetized with 2% isoflurane (J. A. Webster, Inc., Sterling, Mass. The femoral artery was cannulated with PE50 tubing for blood sampling. The external jugular vein was also cannulated with Silastic tubing for drug injection. After surgery, anesthetic gases were removed and the rat was allowed to rest in a plastic restrainer for 60 minutes to establish baseline values of blood gases.
(§2) The compounds 1-6 were administered intravenous. Nociceptive response and respiratory values were obtained for a 1-2 hour period. The femoral artery cannulation was used to draw arterial blood into a syringe pre-wetted with heparin. Samples were then analyzed with a blood gas analyzer (Ph/Gas Analyzer Synthesis 25 Model, Instrumentation Laboratory) to assess respiratory depression effects. The volume of blood taken each time was 0.15 cc. The syringes were capped immediately and the blood gases analyzed within 5 minutes. The blood exposed to air at the tip of the syringe was expelled. The blood was mixed by gentle inversion and an aliquots of 0.10 cc was injected into the blood gas analyzer.
(§3) The gas analyzer was well maintained and operated. Calibrations (low, normal and high) were done at the beginning of every day of testing. The sample lines, co-oximeter and the blood gas electrode were cleaned regularly at the end of every day of testing. Hematocrit calibration (high and low) was scheduled on a weekly basis and tubing, sample and pinch valve were replaced on a monthly basis.
(§4) The ED50 values for analgesia potency and respiratory depression were determined to calculate the safety or therapeutic ratio, which is defined as the respiratory depression ED50 divided by analgesia ED50.

Data set [4] has as its system rats. Described as above. It counts as in vivo. The conditions noted are these: rat; for Respiratory Depression % Units Baseline pCO2: 0.30 mg/kg i.v. The method, then:
as §1, §2, §3, §4

T1 sequence (P33535 whole entry): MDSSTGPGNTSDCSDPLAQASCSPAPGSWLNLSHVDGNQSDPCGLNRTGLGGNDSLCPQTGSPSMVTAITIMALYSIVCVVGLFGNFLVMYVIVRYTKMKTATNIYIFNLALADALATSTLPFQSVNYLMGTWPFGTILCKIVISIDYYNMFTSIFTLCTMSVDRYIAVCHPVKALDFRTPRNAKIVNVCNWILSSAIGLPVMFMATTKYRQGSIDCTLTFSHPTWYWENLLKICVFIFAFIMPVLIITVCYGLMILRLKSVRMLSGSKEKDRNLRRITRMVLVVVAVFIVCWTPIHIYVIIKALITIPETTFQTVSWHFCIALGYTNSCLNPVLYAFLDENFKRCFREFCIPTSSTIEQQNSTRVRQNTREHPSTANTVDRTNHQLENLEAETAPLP
T2 sequence (P32300 whole entry): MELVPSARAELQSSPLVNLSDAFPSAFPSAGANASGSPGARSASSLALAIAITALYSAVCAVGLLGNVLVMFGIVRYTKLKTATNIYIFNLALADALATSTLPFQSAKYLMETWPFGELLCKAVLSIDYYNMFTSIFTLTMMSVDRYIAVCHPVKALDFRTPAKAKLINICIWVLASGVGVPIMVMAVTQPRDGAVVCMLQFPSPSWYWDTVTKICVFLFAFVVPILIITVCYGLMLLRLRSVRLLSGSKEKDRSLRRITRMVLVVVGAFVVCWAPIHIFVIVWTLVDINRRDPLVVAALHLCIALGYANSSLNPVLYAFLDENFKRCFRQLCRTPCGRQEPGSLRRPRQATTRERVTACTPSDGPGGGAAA

One may read the ED50 as the midpoint of the dose-response relation. A higher ED50 goes with weaker potency. Regarding `C=CCN1C[C@H](C)N([C@H](c2ccsc2)c2cccc(O)c2)C[C@H]1C` [Compound 2, (−)3-((S)-((2S,5R)-4-allyl-2,5-dimethyl-1-piperazinyl)(3-thienyl)methyl)phenol], in data set [1] (mu and delta receptor binding), the “K1 relative to the K1 of its enantiomer DPI-165” value is listed as “approximately 1/1000”. Further, the Ki in data set [1] (rat brain membranes, [3H]DAMGO, read-out: Rat Brain Membrane K1 (nM) μ) is 0.4 nM. In addition, the EC50 in data set [2] came to 14.2 nM. Moreover, the ED50 in data set [3] was found to be 0.72 mg/kg. Besides, the “Respiratory Depression % Units Baseline pCO2” value in data set [4] (4 min.) came to 48%; in data set [4] (8 min.), 34%; in data set [4] (32 min.), 17%. In addition, in data set [4] (i.v.), the “Mortality due to respiratory depression” value is on record as “without lethal respiratory depression”. The “Safety Ratio (respiratory depression ED50 divided by analgesia ED50)” value in data set [4] (intravenous) is 15.7. Also, in data set [4] (intravenous), the “Safety ratio, times greater than any of the other enantiomeric compounds tested” value is recorded as “at least six times greater”. Further, the “Safety ratio, times greater than either of the racemic mixtures” value in data set [4] (intravenous) was at least 3 times.
